PMC12107103, “MTA-cooperative PRMT5 inhibitors from cofactor-directed DNA-encoded library screens” (Proceedings of the National Academy of Sciences of the …, 2025)

Key:
MTAP null tumors = test system: MTAP null tumors; set-up: method as in PMID 39282709; details: patients with MTAP null tumors; cited from earlier work
HCT116 MTAP WT tumors = assay: Contralateral tumor model, tumor SDMA ELISA, WT tumors; assay type: in vivo, mouse; details: parental (MTAP WT) tumors, daily for 4 d
Experimental: (§1) Mice were implanted contralaterally on their flanks with parental and MTAP-deleted HCT116 cells such that each mouse would carry one WT and one MTAP-deleted tumor (Fig. 4A). This design eliminates variance in compound exposures between groups and allows direct assessment of MTAP status impact on compound effects. […] Four hours post the fourth dose, tumors were analyzed for SDMA content by ELISA. […] This confirms the MTA-selective action of AM-9934 in the tumor setting.
(§2) HCT116 colon carcinoma WT and MTAP^−^/^− isogenic cells were determined to be free of contamination with mycoplasma as well as a panel of murine viral pathogens in addition to being authenticated. Mice were inoculated s.c. with 2 × 10^6 HCT116 WT cells on the left flank and 2 × 10^6 HCT116 MTAP^−^/^− cells on the right flank in 33% Matrigel. Mice were enrolled once both tumors reached 250 to 500 mm^3 and randomized into vehicle vs. PRMT5i treated groups (N = 3). Vehicle or PRMT5i treatment started on day 14 postimplantation orally and treated once daily for 4 d. […]
(§3) Preparation of protein lysates from snap-frozen tumors was carried out as follows: samples were collected in a Covaris Tissue Tube (520001 TT1) to be used in conjunction with the CryoPrep. […] The protein concentration of each lysate was then determined using a BCA assay. […]

HCT116 MTAP Null tumors = assay: Contralateral tumor model, tumor SDMA ELISA, MTAP-deleted tumors; assay type: in vivo, mouse; details: daily for 4 d
Experimental: as §1, §2, §3

[1] = test system: 24-cell line panel of MTAP WT and MTAP-deleted cell lines; assay: Cell viability across 24-cell line panel; assay type: cell-based; details: MTAP WT vs MTAP-deleted
Experimental: (§4) Parental (HD PAR-034) and MTAP^−^/^− (HD R02-033) colorectal cancer HCT116 cell lines were obtained from Horizon Discovery and maintained in RPMI1640 supplemented with 10% fetal bovine serum and antibiotics or in McCoy 5A supplemented with 10% fetal bovine serum (for mouse experiments). Other cell lines were obtained from ATCC and maintained according to instructions. Effects of compounds on cell viability were assessed using the CellTiter-Glo Kit from Promega (G7571) after 6 d of compound incubation and quantified using an EnVision® 2105 multimode plate reader (PerkinElmer) in luminescence mode.

PRMT5:MEP50 complex = molecular target: T1, PRMT5:MEP50 complex (Homo sapiens, UniProt O14744); assay: Thermal Stability Assay (TSA), thermal shift; assay type: binding; details: for stabilization of the complex by cofactor alone: cofactor added to apo complex (10 µM SIN, 10 µM SAM, or 5 µM MTA)
T1 construct: FLAG (N); purchased Reaction Biology Corp HMT-2-148; host or cells: insect cells (baculovirus)
Experimental: 0.1 µM PRMT5:MEP50 complex was incubated with compounds in a buffer consisting of 50 mM Tris-HCl pH 8.0, 50 mM NaCl, 1 mM TCEP, and 4xSypro Orange (Thermo Fisher, S-6650) in the absence or presence of cofactor (10 µM SIN, 10 µM SAM, or 5 µM MTA) and read on a StepOne™ Real-Time PCR machine (Applied Biosystems™) using a temperature ramp of 0.5 °C/min over a range of 25 to 95 °C.

[2] = test system: Parental HCT116 cells (MTAP WT); assay: SDMA high-content imaging assay, parental cells; assay type: cell-based; details: Homo sapiens, HCT-116, 72 h, read-out: IC50, reduction of cellular SDMA
Experimental: (§5) Cells were seeded into 96-well plates and incubated with compound for 3 d before fixing with 4% PFA (in 1× PBS) for 15 min. Cells were then washed once with Wash Buffer (1× PBS + 1% BSA + 0.2% Triton X-100), 100 µL/well for 15 min before blocking for 1 h Using Licor Odyssey blocking reagent ([…]) (100 µL/well). After three washes in Wash Buffer, cells were then stained for 2 h with anti-SDMA antibody (1:2,000 in Wash Buffer), washed three times in Wash Buffer, stained for 1 h in the dark using anti-rabbit Alexa-488 (1:2,000 in Wash Buffer) and Hoechst 33342 (1:5,000), followed by three washes in Wash Buffer before quantifying on a Cellomics Array Scan image system.

[3] = test system: MTAP-deleted HCT116 cells; assay: Cell viability (CellTiter-Glo), MTAP-deleted cells; assay type: cell-based; details: Homo sapiens, read-out: IC50, cell viability
Experimental: as §4

in vitro = details: human, primary bone marrow-derived megakaryocytes
[4] = test system: Parental HCT116 cells (MTAP WT); assay: Cell viability (CellTiter-Glo), parental cells; assay type: cell-based; details: Homo sapiens, read-out: IC50, cell viability
Experimental: as §4

[5] = test system: MTAP-deleted HCT116 cells; assay: SDMA high-content imaging assay, MTAP-deleted cells; assay type: cell-based; details: Homo sapiens, HCT-116, 72 h, read-out: IC50, reduction of cellular SDMA
Experimental: as §5

[6] = Blood/tumor compound concentrations in contralateral tumor model; assay type: in vivo, mouse; details: 4 h post last dose, 50-200 mg/kg
Experimental: HCT116 colon carcinoma WT and MTAP^−^/^− isogenic cells were determined to be free of contamination with mycoplasma as well as a panel of murine viral pathogens in addition to being authenticated. Mice were inoculated s.c. with 2 × 10^6 HCT116 WT cells on the left flank and 2 × 10^6 HCT116 MTAP^−^/^− cells on the right flank in 33% Matrigel. Mice were enrolled once both tumors reached 250 to 500 mm^3 and randomized into vehicle vs. PRMT5i treated groups (N = 3). Vehicle or PRMT5i treatment started on day 14 postimplantation orally and treated once daily for 4 d. Blood was collected at 4 h post–last dose (day 17 postimplantation) for pharmacokinetic analysis in Microtainer tubes containing lithium heparin. Blood was centrifuged at 7,000 rpm at 4 °C for 7 min. Tumors from both sides were also collected and snap-frozen for pharmacokinetic analysis and SDMA ELISA. Plasma and tumors were collected and stored at −80 °C until analysis.

[7] = test system: arginine-, lysine-, and DNA-methyltransferases; assay: Methyltransferase panel profiling (BPS Bioscience): other methyltransferases; details: tested up to 10 µM

T1 sequence (O14744 2-637 limits assumed): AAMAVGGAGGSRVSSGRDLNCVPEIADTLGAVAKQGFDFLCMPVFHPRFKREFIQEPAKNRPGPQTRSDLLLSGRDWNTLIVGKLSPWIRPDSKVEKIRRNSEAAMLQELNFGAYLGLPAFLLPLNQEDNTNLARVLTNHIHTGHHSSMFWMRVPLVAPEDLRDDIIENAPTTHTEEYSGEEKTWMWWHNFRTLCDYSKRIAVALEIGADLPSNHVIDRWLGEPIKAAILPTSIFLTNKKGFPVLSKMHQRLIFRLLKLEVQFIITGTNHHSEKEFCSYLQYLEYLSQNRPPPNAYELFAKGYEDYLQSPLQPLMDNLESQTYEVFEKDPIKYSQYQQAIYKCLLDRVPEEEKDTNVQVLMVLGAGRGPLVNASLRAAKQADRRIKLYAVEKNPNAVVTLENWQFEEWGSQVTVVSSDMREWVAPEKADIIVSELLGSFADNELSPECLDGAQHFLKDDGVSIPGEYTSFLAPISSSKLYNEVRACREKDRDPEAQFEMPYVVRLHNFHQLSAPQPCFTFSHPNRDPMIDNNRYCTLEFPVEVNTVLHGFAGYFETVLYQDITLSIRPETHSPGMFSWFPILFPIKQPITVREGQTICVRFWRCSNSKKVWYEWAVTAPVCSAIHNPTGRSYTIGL
T1 sequence (Q9BQA1 2-342 partner limits assumed): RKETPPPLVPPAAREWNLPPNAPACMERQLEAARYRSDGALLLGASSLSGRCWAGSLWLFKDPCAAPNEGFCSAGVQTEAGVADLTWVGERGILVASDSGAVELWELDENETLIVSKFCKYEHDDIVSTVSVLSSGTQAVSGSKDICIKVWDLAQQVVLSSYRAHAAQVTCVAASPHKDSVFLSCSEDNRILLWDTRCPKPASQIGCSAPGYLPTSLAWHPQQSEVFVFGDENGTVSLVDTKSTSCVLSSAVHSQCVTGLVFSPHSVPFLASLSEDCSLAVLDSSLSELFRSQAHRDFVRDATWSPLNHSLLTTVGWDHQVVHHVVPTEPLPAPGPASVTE

Q: With `Nc1nc2cnc(C(=O)N3CCOC[C@@H]3c3ccc(C(F)(F)F)cc3)cc2c2c1COC2` [AMG 193] as the molecule, how does the “antitumor responses in patients” value (MTAP null tumors) read?
A: initial antitumor responses

Q: For `CC(=O)N1CCC(Nc2cc(C(=O)NC[C@H](O)CN3CCc4ccccc4C3)ncn2)CC1` [GSK3326595], which “suppression of tumor SDMA levels (in words)” value (“suppression” below) (HCT116 MTAP WT tumors) is on record?
A: marked suppression

Q: What about the “suppression” value (HCT116 MTAP Null tumors) of the same molecule?
A: marked suppression

Q: Which “discrimination of viability potency by MTAP status” value [1] does the source give for `O=C(NC[C@H](O)CN1CCc2ccccc2C1)c1cc(NC2COC2)ncn1` [EPZ015666] here?
A: did not significantly discriminate

Q: What about the “stabilization of the MTA-bound complex” value (PRMT5:MEP50 complex; MTA-bound complex, compound 10 µM) of the same molecule?
A: no stabilization

Q: What about the “stabilization of the SAM-bound complex” value (PRMT5:MEP50 complex; SAM-bound complex, compound 10 µM) of the same molecule?
A: showed an interaction

Q: And the “stabilization of the SIN-bound complex” value (PRMT5:MEP50 complex; SIN-bound complex, compound 10 µM)?
A: showed an interaction

Q: What about the IC50 ([2]; parental HCT116, 3 d incubation) of the same molecule?
A: 0.0096 µM

Q: What about the IC50 ([3]; HCT-116, MTAP-deleted HCT116, 6 d incubation) of the same molecule?
A: 0.6 µM

Q: And the IC50 (in vitro)?
A: 0.36 µM

Q: And the IC50 ([4]; HCT-116, parental HCT116, 6 d incubation)?
A: 0.89 µM

Q: What about the IC50 ([5]; MTAP-deleted HCT116, 3 d incubation) of the same molecule?
A: 0.0043 µM

Q: With `Cc1cc2cc(C(=O)N(Cc3ccc(C(F)(F)F)cn3)CC(C)C)ccc2nc1N` [AM-9934] as the molecule, how does the “exposures (blood/tumor compound concentrations)” value [6] read?
A: exposures increased with dose

Q: What about the “discrimination of viability potency by MTAP status” value [1] of the same molecule?
A: significantly higher potency toward MTAP-deleted cell lines

Q: What about the “stabilization in the presence of MTA” value (PRMT5:MEP50 complex; MTA-bound complex, compound 0.1 µM) of the same molecule?
A: 9.3 K

Q: And the IC50 [2]?
A: 0.143 µM

Q: And the “inhibitory activity toward the other tested methyltransferases” value [7]?
A: No significant inhibitory activity

Q: And the IC50 ([3]; HCT-116, […])?
A: 0.16 µM

Q: And the “suppression” value (HCT116 MTAP WT tumors)?
A: insignificant at lower doses

Q: And the IC50 (in vitro)?
A: 3.1 µM

Q: What about the IC50 ([4]; HCT-116, […]) of the same molecule?
A: 4.1 µM

Q: And the “suppression” value (HCT116 MTAP Null tumors)?
A: all three doses reached significant levels of SDMA suppression

Q: And the IC50 [5]?
A: 0.0092 µM

Q: For `Nc1ncnc2c1ncn2[C@@H]1O[C@H](C[C@@H](N)CC[C@H](N)C(=O)O)[C@@H](O)[C@H]1O` [SIN, sinefungin], which “stabilization of the complex by cofactor alone” value (from here on “stabilization of the complex”) (PRMT5:MEP50 complex) is on record?
A: < 0.5 K

Q: For `C[S+](CC[C@H](N)C(=O)[O-])C[C@H]1O[C@@H](n2cnc3c(N)ncnc32)[C@H](O)[C@@H]1O` (some centres unmarked) [SAM, S-Adenosyl methionine], which “stabilization of the complex” value (PRMT5:MEP50 complex) is on record?
A: < 0.5 K

Q: With `CSC[C@H]1O[C@@H](n2cnc3c(N)ncnc32)[C@H](O)[C@@H]1O` [MTA, methylthioadenosine] as the molecule, how does the “stabilization of the complex” value (PRMT5:MEP50 complex) read?
A: < 0.5 K
